Measured values as given in patent publication US8022047B2, “Combination anticancer agents” (Chugai Seiyaku Kabushiki Kaisha, priority 2005, dated 2011).
Read-outs that look alike come from different tables or passages of the source.

Tests used:
[1] = system: human pancreatic cancer Capan-1 xenograft; conditions: mice; i.v. once a week for four consecutive weeks
Method: A single cell suspension of Capan-1 (8.4×10^6 cells per mouse) was inoculated subcutaneously into the right side of the abdomen of each mouse. The tumor size of each mouse was measured twice a week and the tumor volume was estimated using the ab^2/2 formula (a and b refer to the length and width of the tumor, respectively). Randomization and administration of pharmaceuticals were begun the day the tumor volume exceeded 100 mm^3
Gemcitabine was dissolved and diluted in physiological saline, and intravenously administered once a week for four consecutive weeks.
Gemcitabine was administered once a week for four consecutive weeks.

[2] = system: human lung cancer Calu-6 xenograft; experiment: Antitumor effect in xenograft model, compound 2A plus CDDP or carboplatin (Example 4); format: in vivo; conditions: mice; i.v. once in a three-week period
Method: The human lung cancer cell line Calu-6 was purchased from ATCC.
CPT-11, CDDP, and carboplatin were purchased from Daiichi Pharmaceuticals, Nippon Kayaku, and Bristol-Meyers Squibb, respectively.
Compound 2A, CPT-11, CDDP, and carboplatin were dissolved and diluted in a saline solution. […] CDDP and carboplatin were intravenously administered once in a three-week period.
In one therapeutic cycle, compound 2A and CPT-11 were administered once a week for three consecutive weeks, and CDDP and carboplatin were administered once in the three-week period.

[3] = system: human colorectal cancer HCT116 xenograft
Method: The human colorectal cancer cell line HCT116 was purchased from ATCC. Cells were monolayer cultured in McCoy's 5a medium containing 2 mM L-glutamine and 10% (v/v) fetal bovine serum.
Five-week old male athymic nude mice (BALB/c nu/nu) were purchased from Charles River Japan. The mice were reared for at least one week prior to the experiment at the animal facility of the research institute.
A single cell suspension of HCT116 (8×10^6 cells per mouse) was inoculated subcutaneously into the right side of the abdomen of each mouse. The tumor size of each mouse was measured twice a week and the tumor volume was estimated using the ab^2/2 formula (a and b refer to the length and width of the tumor, respectively). Randomization and administration pharmaceuticals were begun the day the tumor volume exceeded 100 mm^3
The dosage is as follows.
Capecitabine was dissolved and diluted in 40 mM citric acid buffer (pH6) containing 5% gum arabic.

Nc1ccn([C@@H]2O[C@H](CO)[C@@H](O)C2(F)F)c(=O)n1 [gemcitabine]
MTD (maximum tolerated dose) [1]: 400 mg/kg/injection

N.N.O=C([O-])C1(C(=O)[O-])CCC1.[Pt+2] [carboplatin]
MTD (maximum tolerated dose) [2]: 50 mg/kg/injection

CCCCCOC(=O)Nc1nc(=O)n([C@@H]2O[C@H](C)[C@@H](O)[C@H]2O)cc1F [capecitabine]
MTD (maximum tolerated dose) ([3]; mouse, in vivo, po): 360 mg/kg/injection

CCCCCN1C=Nc2cccc3nc4c(c1c23)Cn1c-4cc2c(c1=O)COC(=O)[C@@]2(CC)OC(=O)CN(C)C(=O)CN.Cl [compound 2A, (9S)-9-ethyl-9-(glycyl-sarcosyloxy)-1-pentyl-1H,12H-pyrano[3″,4″:6′,7′]indolizino[1′,2′:6,5]pyrido[4,3,2-de]quinazoline-10,13(9H,15H)-dione hydrochloride]
MTD (maximum tolerated dose) ([3]; mice, i.v. once during a three-week period, actually measured weight of the hydrochloride): 60 mg/kg/injection | MTD (maximum tolerated dose) as free base ([3]; mice, i.v. once during a three-week period, weight converted to free base): 47 mg/kg/injection
